Tests used:
[1] = system: P.A.F.-induced aggregation of blood platelets; assay: anti-P.A.F. action in vitro (P.A.F.-induced platelet aggregation); format: cell-based; settings: Oryctolagus cuniculus, 10^-5 mole/liter, read-out: Anti-P.A.F. activity in vitro, % inhibition of the P.A.F.-induced aggregation of blood platelets from rabbit blood
Description: 3. Determination of the anti-P.A.F. action in vitro.
P.A.F. (=Platelet Activating Factor=Platelet Aggregation Factor) is a phospholipid mediator which has a multiplicity of actions. The activation of blood platelet aggregation results in the induction of long-lasting bronchoconstrictions and hyperreactivity of the respiratory passages.
In this test, the effect of the test substances on platelet aggregation induced by addition of P.A.F. in a platelet suspension obtained from rabbit blood was investigated according to the method described by Mikashima et al. (Jap. J. Pharmacol. 44 (1987) 387-391).
A suspension of platelets obtained from rabbit blood was used which contains 4×10^9 platelets/ml in a modified Tyrode buffer solution (=Tyrode solution with the addition of 1.3 mM/l of CaCl2 and 2.5 g/l of gelatine) adjusted to pH 7.4. Tyrode solution is an aqueous solution containing, per liter, 136.9 mmole of NaCl, 2.68 mmole of KCl, 2.31 mmole of CaCl2, 1.0 mmole of MgCl2, 11.9 mmole of NaHCO3, 1.45 mmole of NaH2 PO4 and 5.55 mmole of glucose. The platelets were concentrated from 10 ml blood samples of three rabbits (New Zealand hybrids, body weight 3-4 kg) in each case. To accomplish this, the blood samples were treated with ethylenediaminetetraacetic acid and washed according to the method of Artley et al. (Brit. J. Haematol. 19 (1970), 7-17). A platelet-rich plasma was first separated by centrifugation (20 minutes at 400×g). The platelets were separated from the plasma by repeated centrifugation for 15 minutes at 1400×g.After the centrifugation, the blood platelets remaining in the sediment were resuspended in a Tyrode buffer solution (but without calcium). 0.4 mmole of lysine acetylsalicylate was then added, and the blood platelets were sedimented again after 15 minutes. The sediment was resuspended in the aforementioned modified Tyrode buffer solution, and the number of platelets in the suspension obtained was adjusted to the desired content.
A 40×10^-9 molar P.A.F. solution was employed as a reagent. This solution was prepared from a 1.8×10^-3 molar stock solution in chloroform. To do this, a 10 μl sample of the stock solution was evaporated to dryness and dissolved again in 180 μl of the modified Tyrode buffer solution, to which 0.25% of lipid-free bovine serum albumin had been added. 10^-5 molar working solutions were then prepared from this and stored frozen. Samples of these solutions were appropriately diluted for tests.
In order to carry out the test, 50 μl of the blood platelet suspension and 10 μl of a 40×10^-5 molar solution of the compound to be investigated were added to […] of the modified Tyrode buffer solution with stirring (1000 rpm) in an aggregation tube provided with a small magnetic stirrer. This corresponded to a final test substance concentration of 10^-5 mole/l. After a preincubation time of 90 seconds, 10 μl of the P.A.F. preparation were added. For 4-5 minutes, the aggregation occurring in the aggregation tube was measured by means of a computerized aggregometer.
The aggregation occurring in the test tubes containing only the platelet suspension is rated as 0%. The aggregation occurring in the test tubes containing platelet suspension and P.A.F. preparation, in which a P.A.F.-induced increase in platelet aggregation takes place, is rated as 100%. The aggregation still occurring after addition of the test substances is measured, and from this the inhibition of the P.A.F.-inducedincrease in aggregation which takes place is calculated in %.

5-lipoxygenase = assay: inhibition of 5-lipoxygenase activity in polymorphonuclear rat leucocytes (LTB4 formation); format: cell-based; settings: 10^-5 mol/l; 22° C.
Description: 4. In vitro determination of 5-lipoxygenase inhibition. 4a. In vitro determination of inhibition of 5-lipoxygenase activity in polymorphonuclear rat leucocytes. Arachidonic acid contained in cell membranes is released after activiation of the polymorphonuclear leucocytes (=PMN). During the course of this, under the action of the enzyme 5-lipoxygenase (=5-LO) arachidonic acid metabolites are synthesized which can be converted to leucotriene B4 (=LTB4) by LTA4 hydrolase. LTB4 is a principal metabolite of the arachidonic acid metabolism taking place on activation of the enzyme 5-LO by the inflammatory stimulus in the cell membrane. In in vitro systems, this metabolite is secreted from PMNs. […] To accomplish this, the content of LTB4 in a culture medium of rat peritoneal PMNs was determined after stimulation by calcimycin (=calcium-ionophore A23187) such as described by […] et al., Can. J. Physiol. Pharmacol. 67 (1989), 17. A cell suspension containing peritoneal PMNs of male Sprague-Dawley rats (body weight 200 to 250 g) was obtained in a known manner as follows: 6 ml of a solution containing 27.9 g/l of sodium thioglycolate were injected i.p. into the animals in order to induce the PMN invasion due to this inflammatory stimulus. After 22 hours, the animals were sacrificed by means of lethal ether anaesthesia. 20 ml of a Hank's salt solution (=Hank's Balanced Salt Solution=HBSS), but without Ca^++ and Mg^++ ions and with 0.2% by weight of sodium citrate, were then injected into the abdominal cavity. The suspension of accumulated cells was removed from the abdominal cavity and the cells were separated by centrifugation (10 minutes at 400×g). The cells were purified by repeated centrifugation in the presence of Ficoll-Paque®, (=metrizoic acid preparation, […], manufacturer Pharmacia), then washed twice with HBSS containing Ca^++ and Mg^++ ions and resuspended in HBSS containing Ca^ ++ and Mg^++ ions and buffered with 10 mM HEPES (=hydroxyethylpiperazinoethanesulfonic acid). In order to carry out the tests, samples of 0.7 ml of the PMN suspension (=0.5×10^6 cells) in each case were incubated for 15 minutes at 22° C. in plastic tubes containing 10 μM of the test substance in dimethylformamide or, as a control experiment, only containing dimethylformamide. The LTB4 synthesis was initiated in the samples by addition of calcimycin (final concentration 5 μm), and the samples were incubated for 10 minutes at 22° C. Only solvent was added to blank control samples. After 10 minutes, the reaction was terminated by addition of 0.3 ml of cold methanol. The samples were kept for 1 hour at 4° C. and then centrifuged (5 minutes at 10,000×g). The supernatant liquid was investigated to determine its LTB4 content by means of reverse phase high-pressure liquid chromatography (=reverse phase HPLC). […] The LTB4 was identified by comparison with authentic standard solutions eluting at the same time and determined at a wavelength of 270 nm. The LTB4 contents are determined from comparison with calibrated standard solutions, and from this the inhibitory activity of the test substances was calculated in % inhibition of the LTB4 synthesis in comparison with the control samples containing no test substance.

COc1ccc(-c2c(C)c3cccc4c3n2CC(CCN2CCN(c3cc(C)ccn3)CC2)O4)cc1 (stereo not drawn) [Example 1, 2,3-dihydro-5-(4-methoxyphenyl)-6-methyl-2-[2-(4-(4-methylpyridin-2-yl)piperazin-1-yl)ethyl]pyrrolo[1,2,3-de]-1,4-benzoxazine]
inhibition at 10 µM [1]: 80%

Cc1ccnc(N2CCN(CCC3Cn4c(-c5ccc(O)cc5)c(C)c5cccc(c54)O3)CC2)c1 (stereo not drawn) [Example 2, 2,3-Dihydro-5-(4-hydroxyphenyl)-6-methyl-2-[2-(4-(4-methylpyridin-2-yl)piperazin-1-yl)ethyl]pyrrolo[1,2,3-de]-1,4-benzoxazine]
inhibition at 10 µM [1]: 97% | In vitro inhibitory activity on LTB4 formation in rat PMNs stimulated by calcium ionophore A23187 (5-lipoxygenase): 89%

COc1ccc(-c2c(C)c3cccc4c3n2CC(CCC(=O)N2CCN(c3cc(C)ccn3)CC2)O4)cc1 (stereo not drawn) [Example 6, 2,3-Dihydro-5-(4-methoxyphenyl)-6-methyl-2-[3-(4-(4-methylpyridin-2-yl)piperazin-1-yl)-3-oxopropyl]pyrrolo[1,2,3-de]-1,4-benzoxazine]
inhibition at 10 µM [1]: 100%

Cc1ccnc(N2CCN(CC3Cn4c(-c5ccc(O)cc5)c(C)c5cccc(c54)O3)CC2)c1 (stereo not drawn) [Example 14]
inhibition at 10 µM [1]: 100% | In vitro inhibitory activity on LTB4 formation in rat PMNs stimulated by calcium ionophore A23187 (5-lipoxygenase): 90%

Cc1c(-c2ccc(O)cc2)n2c3c(cccc13)OC(CCN1CCN(c3ccc(F)cc3)CC1)C2 (stereo not drawn) [Example 24]
In vitro inhibitory activity on LTB4 formation in rat PMNs stimulated by calcium ionophore A23187 (5-lipoxygenase): 73%

Cc1cccnc1N1CCN(C(=O)CCC2Cn3c(-c4ccc(O)cc4)c(C)c4cccc(c43)O2)CC1 (stereo not drawn) [Example 37]
inhibition at 10 µM [1]: 48% | In vitro inhibitory activity on LTB4 formation in rat PMNs stimulated by calcium ionophore A23187 (5-lipoxygenase): 100%

Cc1ccnc(N2CCN(CCC3Cn4c(-c5cc(C)c(O)c(C)c5)c(C)c5c(Cl)ccc(c54)O3)CC2)c1 (stereo not drawn) [Example 48]
inhibition at 10 µM [1]: 69%

COc1ccc(-c2c(C)c3c(F)ccc4c3n2CC(CCN2CCN(c3cc(C)ccn3)CC2)O4)cc1 (stereo not drawn) [Example 51]
inhibition at 10 µM [1]: 65%

COc1ccc(-c2c(C)c3cccc4c3n2CC(CCN2CCN(c3cc(C)ccn3)CC2)O4)cc1O (stereo not drawn) [Example 52]
In vitro inhibitory activity on LTB4 formation in rat PMNs stimulated by calcium ionophore A23187 (5-lipoxygenase): 53%

Cc1ccc(N2CCN(CCCC3Cn4c(-c5ccc(O)cc5)c(C)c5cccc(c54)O3)CC2)nc1 (stereo not drawn) [Example 55]
In vitro inhibitory activity on LTB4 formation in rat PMNs stimulated by calcium ionophore A23187 (5-lipoxygenase): 63%

Cc1c(-c2ccc(O)cc2)n2c3c(cccc13)OC(CCCN1CCN(c3ccccn3)CC1)C2 (stereo not drawn) [Example 56]
In vitro inhibitory activity on LTB4 formation in rat PMNs stimulated by calcium ionophore A23187 (5-lipoxygenase): 76%

Cc1cccc(N2CCN(C(=O)CCC3Cn4c(-c5ccc(O)cc5)c(C)c5cccc(c54)O3)CC2)n1 (stereo not drawn) [Example 57]
In vitro inhibitory activity on LTB4 formation in rat PMNs stimulated by calcium ionophore A23187 (5-lipoxygenase): 85%

Cc1cccc(N2CCN(CCCC3Cn4c(-c5ccc(O)cc5)c(C)c5cccc(c54)O3)CC2)n1 (stereo not drawn) [Example 58]
In vitro inhibitory activity on LTB4 formation in rat PMNs stimulated by calcium ionophore A23187 (5-lipoxygenase): 54%

Cc1ccnc(N2CCN(CCCCC3Cn4c(-c5cc(C)c(O)c(C)c5)c(C)c5cccc(c54)S3)CC2)c1 (stereo not drawn) [Example 63]
inhibition at 10 µM [1]: 80%

COc1ccc2c3c1c(C)c(-c1ccc(O)cc1)n3CC(CCC(=O)N1CCN(c3cc(C)ccn3)CC1)O2 (stereo not drawn) [Example 68]
inhibition at 10 µM [1]: 96% | In vitro inhibitory activity on LTB4 formation in rat PMNs stimulated by calcium ionophore A23187 (5-lipoxygenase): 90%

Cc1ccnc(N2CCN(CCC3Cn4c(-c5ccc(O)cc5)c(C)c5c(C)cc(C)c(c54)O3)CC2)c1 (stereo not drawn) [Example 70]
inhibition at 10 µM [1]: 93% | In vitro inhibitory activity on LTB4 formation in rat PMNs stimulated by calcium ionophore A23187 (5-lipoxygenase): 68%
